From paper PMC12124858, “Thymoquinone loaded on chitosan nanoparticles alleviated the consequences of cryptosporidiosis infection in a murine model: Evidence from parasitological, histopathological, immunohistochemical, and immunological studies” (PLOS One, 2025)
Marks after values point to notes of the source that are not given here.

How the values were obtained:
[1] = In vitro release study, dialysis method; type: physicochemical; conditions: PBS pH 6.8, 37°C
Protocol: The THQ release profile from […] […] Briefly, 3 mL of the […] suspension was placed in a dialysis bag (M.W. 12 kDa, Sigma-Aldrich). Each sealed dialysis bag was immersed in 50 mL of PBS (pH 6.8) in a shaking incubator at 37 ± 0.5°C and 100 rpm. Samples were withdrawn from the release medium at specified intervals and replaced with fresh buffer to maintain sink conditions. […] As a control, the release of free THQ and free NTZ was measured under the same conditions. All measurements were performed in triplicate.

Cryptosporidium parvum [2] = test: Oocyst shedding in immunosuppressed infected mice; type: in vivo, Swiss albino mice; conditions: for I % (percent inhibition of oocyst count) / I% (percent inhibition of oocyst count, effectiveness): versus infected untreated group
Protocol: Animals: The study was conducted following approval by the Research Ethics Committee of Zagazig University, Institutional Animal Care and Use Committee (ZU-IACUC), under protocol number ZU-IACUC/2/F/53/2024, following the National Institutes of Health guidelines for animal experimentation. Seventy male laboratory-bred Swiss albino mice free of parasites were included in this study. The mice weighed 20-25 grams at the start of the trial and were between four and six weeks old. They were purchased from the Biological Supply Center of the Theodor Bilharz Research Institute (TBRI). Throughout the trial, the mice were housed in an air-conditioned animal facility maintained at 20-22°C and were provided with a standard commercial pelleted diet and free access to water. […] Immunosuppression: The mice were subjected to immunosuppression by administering dexamethasone (Dexazone, […] Pharmaceuticals, Cairo, Egypt) orally through an esophageal tube at a rate of 0.25 μg/g/day for 14 consecutive days before being inoculated with C. parvum oocysts. Throughout the experiment, the mice received the same dosage of dexamethasone. The infection: In a previous study, we isolated Cryptosporidium oocysts from diarrheal calves and genetically identified them as C. parvum. The 2.5% potassium dichromate solution containing purified oocysts was stored at 4°C until needed. After preparing an infectious inoculum and counting the number of oocysts in the concentrated stock inoculum, the fluid volume of the inoculum per mouse was determined. Oral-gastric gavage was used to infect each mouse orally with C. parvum oocysts. Approximately 3 × 10^3 oocysts/mouse were used to infect each mouse at 0 days post-infection (dpi). […] Thymoquinone loaded on chitosan nanoparticles was given at the same dose for Group VII. Chitosan was administered at 200 mg/kg three times a week, starting at seven dpi for 2 weeks for Group III [36]. Assessments of the drug therapy: Parasitological examination: The mice feces were collected at 7, 14, and 21 dpi. For the oocyst shedding assessment, the number of Cryptosporidium oocysts in the fecal pellets was counted after staining with Kinyoun's acid-fast stain. Fecal samples were collected from each infected mouse. The mean number of oocysts was calculated for each mouse group. After weighing, a milligram of the fecal pellet was placed in 1 milliliter of 10% formalin. Centrifugation concentrated the fecal solution for ten minutes at 7000 rpm. The number of oocysts in one milliliter of the feces sample was calculated using 100 μl of fecal material dried, stained, and observed through an oil immersion lens (x100). The oocyst count was detected and expressed per gram of feces. The effectiveness of each drug was assessed according to [35] and represented as a percentage of reduction using the following formula: Efficacy(%)=100×((infected model group oocyst count-treated model group oocyst count)/(infected model group oocyst count)) %Inhibition = [(mean oocyst count in the infected untreated group - mean oocyst count in the infected treated group)/mean oocyst count in the infected untreated group] × 100

Cryptosporidium parvum [3] = test: Histopathological examination and scores of the intestine (H&E); type: in vivo, Swiss albino mice; conditions: 21 dpi; for Intestinal histopathological findings: H&E, in words
Protocol: At 21 dpi, the mice were humanely euthanized under light anesthesia induced by isoflurane inhalation (Forane®, Baxter, UK). Representative tissue specimens from all animals’ intestines, livers, and spleens were carefully collected and fixed in a 10% neutral buffered formalin solution for 48 hours. Following fixation, the tissues were dehydrated through a graded series of ethyl alcohol concentrations, cleared in xylene, and subsequently embedded in paraffin wax. Two sections, each 5 µm thick, were obtained from each tissue specimen. The sections were then deparaffinized in xylene and rehydrated through a descending series of alcohol concentrations. After rehydration, the tissue sections were mounted onto histological slides and stained with hematoxylin and eosin (H&E) for microscopic examination. The prepared slides were thoroughly analyzed under a light microscope to identify pathological alterations and evaluate the administered drug’s potential ameliorative effects. This standardized protocol ensured accurate and consistent histological assessment across all samples [39]. Histopathological scores for intestine: H&E-stained tissue sections of the intestine were evaluated in a blinded manner by assessing specific histological parameters, including mononuclear cell infiltration in the lamina propria, crypt hyperplasia, depletion or hyperplasia of goblet cells, and alterations in mucosal histoarchitecture. A systematic scoring approach was employed to quantify these histological changes. Histological alterations were counted in 50 randomly selected microscopic fields (captured images; 40 × objective) from each mouse within each experimental group. This method ensured a comprehensive and unbiased assessment of intestinal pathology across all samples [40].

Cryptosporidium parvum [4] = test: Histopathological examination of the liver (H&E); type: in vivo, Swiss albino mice; conditions: 21 dpi, in words
Protocol: (§1) At 21 dpi, the mice were humanely euthanized under light anesthesia induced by isoflurane inhalation (Forane®, Baxter, UK). Representative tissue specimens from all animals’ intestines, livers, and spleens were carefully collected and fixed in a 10% neutral buffered formalin solution for 48 hours. Following fixation, the tissues were dehydrated through a graded series of ethyl alcohol concentrations, cleared in xylene, and subsequently embedded in paraffin wax. Two sections, each 5 µm thick, were obtained from each tissue specimen. The sections were then deparaffinized in xylene and rehydrated through a descending series of alcohol concentrations. After rehydration, the tissue sections were mounted onto histological slides and stained with hematoxylin and eosin (H&E) for microscopic examination. The prepared slides were thoroughly analyzed under a light microscope to identify pathological alterations and evaluate the administered drug’s potential ameliorative effects. This standardized protocol ensured accurate and consistent histological assessment across all samples [39].

Cryptosporidium parvum [5] = test: Histopathological examination of the spleen (H&E); type: in vivo, Swiss albino mice; conditions: 21 dpi, in words
Protocol: as §1

cyclin D1 = test: Immunohistochemical staining of cyclin D1 in the intestine; type: in vivo, Swiss albino mice; conditions: 21 dpi, in words
Protocol: Immunohistochemical examination for detecting intestinal dysplasia using cyclin D1 marker: Three to five-micrometer intestinal tissue sections were deparaffinized using xylene and rehydrated using varying degrees of alcohol. Next, peroxidase activity was blocked using 3% hydrogen peroxide. The Dako target retrieval solution (pH 6.0) was applied for twenty minutes. The sections were treated for one hour with the primary antibody (Anti-Cyclin D1 antibody [SP4], ab 16663, Abcam, UK, diluted 1/100 in PBS). Antibody binding was identified using Dako’s HRP Envision Kit (Dako Cytomation, Denmark).

IFN-γ = test: Serum IFN-γ by ELISA; type: in vivo, Swiss albino mice
Protocol: (§2) Immunological measurements: Interleukin-10 (IL-10) and interferon-gamma (IFN-γ) levels in mouse sera were measured. Blood samples were collected in plain tubes from the mice’s retroorbital veins at the indicated time points (14 dpi and 21 dpi). After 30 minutes at room temperature and 15 minutes of centrifugation at 3000 rpm, sera were collected and stored at −20°C. Using an ELISA kit and following the manufacturer’s instructions, the enzyme-linked immunosorbent assay (ELISA) was employed to measure the levels of IFN-γ and IL-10 in the serum (Bioneovan Co.; Ltd, Beijing, China).

IL-10 = test: Serum IL-10 by ELISA; type: in vivo, Swiss albino mice
Protocol: as §2

[6] = Pharmacokinetic study after oral administration; type: in vivo, Wistar albino rats; conditions: rats, oral 20 mg/kg; for AUC(0-t): read-out: AUC₀ → 24; for half-life: read-out: T1/₂ (converted)
Protocol: All groups received an oral dose of 20 mg/kg of their respective formulations. Blood samples (500 μL) were collected from the ocular vein into heparinized tubes at intervals of 0.5, 1, 2, 4, 6, 8, 12, and 24 hours post-administration. The samples were centrifuged at 10,000 rpm for 5 min to isolate plasma stored at −20°C. Plasma samples were deproteinized by adding 1 mL of acetonitrile to each sample, followed by vortexing for 10 min and centrifugation at 6,000 rpm for another 10 min. […] Pharmacokinetic parameters such as peak plasma concentration (Cmax), time to reach peak concentration (Tmax), mean residence time (MRT), area under the curve (AUC), elimination rate constant (Kel), and plasma half-life (t1/2) were calculated using PK Solver 2.0 software through non-compartmental analysis.

L. donovani = system: L. donovani; design: method as in Islamuddin et al. [22]; conditions: in words; ref Islamuddin et al. [22]; cited from earlier work
[7] = 7th day PI (start of treatment), immunosuppressed mice, oral
[8] = 14th day PI, NTZ forms 100 mg/kg/day 5 days, THQ forms and CsNPs 200 mg/kg three times a week, oral from 7 dpi
[9] = 21th day PI, NTZ forms 100 mg/kg/day 5 days, THQ forms and CsNPs 200 mg/kg three times a week, oral from 7 dpi
[10] = Wistar albino, rat, plasma, n = 6

Row | SMILES | Count of Cryptosporidium oocysts per gram stool, Mean ± SE (Cryptosporidium parvum [2]; [7]) | I % (percent inhibition of oocyst count) (Cryptosporidium parvum [2]; 14th day PI) | Count of Cryptosporidium oocysts per gram stool, Mean ± SE (Cryptosporidium parvum [2]; [8]) | I% (percent inhibition of oocyst count, effectiveness) (Cryptosporidium parvum [2]; 21th day PI) | Count of Cryptosporidium oocysts per gram stool, Mean ± SE (Cryptosporidium parvum [2]; [9]) | Intestinal histopathological findings (Cryptosporidium parvum [3]) | Morphometric indices: Villus width (Cryptosporidium parvum [3]; intestine) | Lesion frequency: Epithelial necrosis (Cryptosporidium parvum [3]; intestine, mean ± SE) | Lesion frequency: Goblet cell hyperplasia (Cryptosporidium parvum [3]; intestine, mean ± SE) | Lesion frequency: Mucosal erosion (Cryptosporidium parvum [3]; intestine, mean ± SE) | Lesion frequency: Mucosal ulceration (Cryptosporidium parvum [3]; intestine, mean ± SE) | Lesion frequency: Mucosal-associated lymphocyte hyperplasia (Cryptosporidium parvum [3]; intestine, mean ± SE) | Lesion frequency: Vascular congestion (Cryptosporidium parvum [3]; intestine, mean ± SE) | Lesion frequency: Villus atrophy (Cryptosporidium parvum [3]; intestine, mean ± SE) | Lesion frequency: Villus fusion (Cryptosporidium parvum [3]; intestine, mean ± SE) | Morphometric indices: Thickness of lamina propria (Cryptosporidium parvum [3]; intestine, mean ± SE) | Morphometric indices: Thickness of muscular layer per image (Cryptosporidium parvum [3]; intestine, mean ± SE) | Morphometric indices: Villus height (Cryptosporidium parvum [3]; intestine, mean ± SE) | Morphometric indices: Villus surface area (Cryptosporidium parvum [3]; intestine, mean ± SE) | Liver histopathological findings (Cryptosporidium parvum [4]) | other results
1 | CC(=O)Oc1ccccc1C(=O)Nc1ncc([N+](=O)[O-])s1 [NTZ, nitazoxanide, reference compound] | 307.3 ± 3 ^Aa x10^3 per gram stool | 53% | 146.8 ± 2.9 ^Bc x10^3 per gram stool | 54% | 145.5 ± 2.6 ^Bc x10^3 per gram stool | persistent villous atrophy and mild improvement in histopathological alterations | 91.2^A | 9 ± 0.58^B | 21.5 ± 0.76^B | 16 ± 0.58^B | 9.83 ± 0.6^B | 21 ± 0.58^C | 21 ± 0.97^B | 10 ± 0.58^B | 5.17 ± 0.31^B | 174.33 ± 1.05^B | 65.87 ± 0.59^BC | 298.67 ± 2.4^C | 27609.37 ± 307.03^C | partial improvement | drug release ([1]; first eight hours): 100%; Spleen histopathological findings (Cryptosporidium parvum [5]): partial improvement with mild hyperplasia of lymphoid elements; cyclin D1 immunostaining of the intestine (cyclin D1): Moderate immunostaining; IFN-γ serum level, Mean ± SE (IFN-γ; 14 days post-infection): 37.1 ± 1.2 ^b; IFN-γ serum level, Mean ± SE (IFN-γ; 21 days post-infection): 28.1 ± 1.3 ^b; IL-10 serum level, Mean ± SE (IL-10; 14 days post-infection): 16.9 ± 0.6 cd; IL-10 serum level, Mean ± SE (IL-10; 21 days post-infection): 30.9 ± 0.3 ^c; concentration at 0.5 h ([6]; Wistar albino, rat, plasma): 24900 ± 9110 ng/mL; concentration at 12 h ([6]; Wistar albino, rat, plasma): 4160 ± 2710 ng/mL; concentration at 24 h ([6]; Wistar albino, rat, plasma): 1390 ± 890 ng/mL; AUC [6, 10]: 1440 ± 49.4 µg·h/mL; AUC(0-inf) [6, 10]: 1470 ± 52.3 µg·h/mL; Cmax [6, 10]: 53200 ± 4950 ng/mL; Tmax [6, 10]: 2 h; AUC(0-t) [6, 10]: 1440 ± 48.7 µg·h/mL; half-life [6, 10]: 6.55 ± 0.54 h; Kel ([6]; n = 6): 0.105 ± 0.0087 h˦ ¹
2 | CC1=CC(=O)C(C(C)C)=CC1=O [THQ, 2-isopropyl-5-methyl-1,4-benzoquinone] | 300 ± 3.1 ^Aa x10^3 per gram stool | 75% | 78 ± 1.5 ^Bd x10^3 per gram stool | 77% | 72 ± 2.6 ^Cd x10^3 per gram stool | greater improvement than the NTZ-treated group | 91.4^A | 7.5 ± 0.43^B | 20.67 ± 0.49^BC | 14.83 ± 0.65^B | 8.83 ± 0.48^B | 22 ± 0.68^C | 18.5 ± 0.85^B | 9.83 ± 0.87^B | 4.83 ± 0.17^B | 170.33 ± 1.15^BC | 64.35 ± 0.2^C | 302 ± 2.35^C | 27975.53 ± 357.01^C | partial improvement | drug release ([1]; after 12 hours): 100%; Morphometric indices: Crypt depth (Cryptosporidium parvum [3]; intestine, mean ± SE): 79.7 ± 0.22^AB; Spleen histopathological findings (Cryptosporidium parvum [5]): partial improvement with mild hyperplasia of lymphoid elements; cyclin D1 immunostaining of the intestine (cyclin D1): Moderate immunostaining; IFN-γ serum level, Mean ± SE (IFN-γ; 14 days post-infection): 36.8 ± 1.5 ^b; IFN-γ serum level, Mean ± SE (IFN-γ; 21 days post-infection): 29.3 ± 0.6 ^ab; IL-10 serum level, Mean ± SE (IL-10; 14 days post-infection): 18.5 ± 0.6^bc; IL-10 serum level, Mean ± SE (IL-10; 21 days post-infection): 33.3 ± 0.4 ^bc; concentration at 0.5 h ([6]; Wistar albino, rat, plasma): 9790 ± 3250 ng/mL; concentration at 12 h ([6]; Wistar albino, rat, plasma): 4880 ± 1790 ng/mL; concentration at 24 h ([6]; Wistar albino, rat, plasma): 4190 ± 1580 ng/mL; AUC [6, 10]: 340 ± 13.6 µg·h/mL; AUC(0-inf) [6, 10]: 630 ± 22.1 µg·h/mL; Cmax [6, 10]: 43600 ± 7920 ng/mL; MRT [6, 10]: 6.97 ± 1.32 h; Tmax [6, 10]: 4 h; AUC(0-t) [6, 10]: 316 ± 12.5 µg·h/mL; half-life [6, 10]: 53.2 ± 4.88 h; Kel ([6]; n = 6): 0.013 ± 0.0012 h˦ ¹; leishmanicidal activity (L. donovani): significant leishmanicidal activity
